From publication PMC10823514, “Target Identification of a Class of Pyrazolone Protein Aggregation Inhibitor Therapeutics for Amyotrophic Lateral Sclerosis” (ACS Central Science, 2023)
Read-outs that look alike come from different tables or passages of the source.

Legend:
14-3-3-E = biological target: T1, 14-3-3-E (Rattus norvegicus, UniProt P62260); test: Cellular thermal shift assay (CETSA) in PC12^G93A cell lysate; type: binding; details: n = 3
T1 construct: isothermal dose–response (ITDR) CETSA curve of 14-3-3-E at 63 °C (B) in PC12^G93A cell lysate; endogenous in cells; host or cells: PC12-SOD1^G93A YFP cell lysate (freeze/thaw)
T1 sequence (P62260 1-255): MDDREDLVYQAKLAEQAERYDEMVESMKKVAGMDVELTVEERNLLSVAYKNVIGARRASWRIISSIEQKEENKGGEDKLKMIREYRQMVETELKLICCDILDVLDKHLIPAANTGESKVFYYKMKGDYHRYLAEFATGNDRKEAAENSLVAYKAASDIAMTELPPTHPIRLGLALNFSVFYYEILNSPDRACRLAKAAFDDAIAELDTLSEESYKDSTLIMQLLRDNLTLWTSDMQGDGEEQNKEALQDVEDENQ
Protocol: Before the experiments were initiated, PC12-SOD1^G93A YFP cells were maintained in DMEM high-glucose media supplemented with 10% horse serum, 5% Tet-approved FBS, 1% Pen-strep, 1X L-glutamine, 200 μg/mL hygromycin, and 100 μg/mL G418. On the day preceding the experiments, the cells were plated onto two separate 10 cm dishes at a concentration of 10 × 10^6 cells per 10 mL of the supplemented media. They were then incubated overnight at 37 °C in a CO2 incubator (5% CO2) until they achieved 90–95% confluency.
The cell medium was subsequently removed, and the cells were rinsed with 1X PBS before being detached using 1 mL of 1X trypsin. To this, 5 mL of 1X PBS solution was added, and the cells were then resuspended, transferred to two separate 15 mL conical tubes, and centrifuged at 1100 rpm for 3 min. The supernatant was discarded, and the cells were resuspended in 1 mL of 1X PBS containing a […] (EDTA-free) (Sigma-Aldrich, 1:100 v/v). […]
SDS PAGE was conducted using a 15-well Novex Bis-Tris 4–12% prepacked gel and 1X MES-SDS gel running buffer (comprising 50 mM MES, 50 mM Tris, 1 mM EDTA, and 0.1% SDS) at a constant voltage of […] over a duration of 2 h. […] These raw immunoblot images were analyzed by using ImageJ software. Data (expressed as relative band intensity %) were normalized relative to the samples that were incubated at the lowest temperature. […]

PC12 SOD1^G93A cells [1] = details: neuroprotection against MG-132-induced SOD1^G93A toxicity in PC12 cells; leads of the authors' earlier work; read-out: EC50 (NP = neuroprotection); cited from earlier work
PC12 SOD1^G93A cells [2] = test: Neuroprotection against MG-132-induced toxicity in PC12 cells expressing mutant SOD1^G93A (calcein-AM viability); type: cell-based; details: Rattus norvegicus, PC-12, read-out: EC50 to ameliorate MG132-induced protein aggregation and cellular toxicity
Protocol: With this information in hand, we implemented a phenotypic drug discovery approach to identify a novel therapeutic for treating ALS. The study employed a rat PC12 cell-based assay that expresses SOD1^G93A mutation for screening a chemical library of more than 50,000 compounds to identify promising hits (Figure 1 compounds 3 and 4). The hits are based on attenuating proteasome inhibitor MG-132-induced SOD1^G93A cellular toxicity.
Viability EC50 values were determined according to the previously reported assay procedure.[43] Briefly, PC12 cells were seeded at 15,000 cells/well in 96-well plates, and the medium was changed to remove the doxycycline 4 days prior to compound addition. Compounds were assayed in 12-point dose–response experiments to determine the potency and efficacy. The highest compound concentration tested was 32 μM, which was decreased by half with each subsequent dose. After a 24 h incubation with the analytes, MG-132 (400 nM) was added and the cells were incubated at 37 °C for 24 h. The cells were washed twice with PBS. Calcein-AM was added at a final concentration of 1 μM for 20 min at room temperature, and the fluorescence intensity was read in a POLARstar fluorescence plate reader (BMG). EC50 values were determined by standardizing fluorescent signal to DMSO treated controls. […] The presented data represent the mean average of duplicate experiments.

| Compound | CETSA melting curve: 14-3-3-E in the soluble fraction versus DMSO control (14-3-3-E; 500 μM P2, cell lysate, difference between 60 and 64 °C, maximum at 63 °C) | ITDR CETSA: relative band intensity of 14-3-3-E in the soluble fraction (14-3-3-E; 63 °C, increasing concentrations, cell lysate) | EC50 (PC12 SOD1^G93A cells [1]) [nM] | EC50 (PC12 SOD1^G93A cells [2]) [nM] |
| --- | --- | --- | --- | --- |
| O=c1cc(COc2cc(Cl)cc(Cl)c2)[nH][nH]1 [P2] | markedly reduced the presence of 14-3-3-E in the soluble fraction | clear decrease in the relative band intensity of 14-3-3-E | 67 | – |
| C#CCN(Cc1cc(=O)[nH][nH]1)Cc1c(F)c(F)c(N=[N+]=[N-])c(F)c1F [PRAPP, 5-(((4-Azido-2,3,5,6-tetrafluorobenzyl)(prop-2-yn-1-yl)amino)methyl)-1,2-dihydro-3H-pyrazol-3-one] | – | – | – | 190 |
